Experimental data reported in US5066592A, “Trigramin - a platelet aggregation inhibiting polypeptide” (Temple University of the Commonwealth System of Higher …, priority 1990, dated 1991).

Columns and labels:
[1] = test system: bleeding time from hamster mesentery lesion; assay: Hamster mesentery bleeding time during intravenous infusion; format: in vivo, golden Syrian hamsters
Method: Female golden Syrian hamsters (90-150 g) were maintained on food and water ad libitum, but fasted overnight prior to their use in the present experiment. After the administration of anesthesia (65 mg/kg sodium pentobarbital, i.p.), the animals were shaved in preparation for surgery. The trachea was intubated with PE-100 polyethylene tubing to facilitate spontaneous breathing. Cannulation of the right femoral vein was performed to provide an intravenous route for supplemental anesthesia as well as for the administration of various control and experiment agents. A catheter was introduced into the right carotid artery for the continuous monitoring of arterial blood pressure, and a rectal temperature probe was inserted. The animal's body temperature was maintained at 37° C. with a heating pad and lamp.
The shaved abdomen was opened by a mid-line incision and a portion of the small intestine was exteriorized and draped over a lucite pedestal. Exposed tissue was kept warm and moist by continuous superfusion with warmed (37° C.) Mammalian Ringer's Solution. Experimental solutions were infused into the right femoral vein at a rate of 0.199 ml/min with a Harvard pump for a 10 minute period. An arterial vessel (external diameter, 100-200 micrometers) located at the junction of the small intestinal wall and the mesentery was severed 4 minutes after the start of the infusion. Blood was flushed away by the superfusion system and the waste was removed with a vacuum from a well surrounding the viewing pedestal. Bleeding was observed through Zeiss dissecting microscope (20×) and bleeding time was recorded from the time of the cut until the cessation of bleeding by the formation of a hemostatic plug. Each animal was used as its own control with bleeding time determined both during the infusion of saline and the selected experimental agent. […] Four additional animals were infused with trigramin while arterial blood pressure was continuously monitored to determine if it had any direct effect on systemic blood pressure. […]

[2] = target: T1, GPIIb-GPIIIa complex on thrombin-stimulated platelets (Homo sapiens, UniProt P05106+P08514); assay: 125I-von Willebrand Factor binding to thrombin-stimulated human platelets; settings: trigramin 10^-8 M; thrombin 0.5 u/ml; von Willebrand Factor 5 micrograms/ml
T1 construct: endogenous in cells; host or cells: human platelets stimulated with thrombin (0.5 u/ml)
Method: (§1) The final concentration of von Willebrand Factor was 5 micrograms/ml. The total specific von Willebrand Factor binding was 380+/-55 ng/10^8 platelets in the control sample. […] It is well known that von Willebrand Factor binds to GPIIb-GPIIIa complex on thrombin-stimulated platelets, and to GPIb on ristocetin-stimulated platelets.

[3] = test system: platelets; assay: Platelet aggregation induced by prostaglandin endoperoxide analogue or thrombin; format: cell-based, human; settings: isolated platelet suspension
[4] = target: T2, GPIb on ristocetin-stimulated platelets (Homo sapiens, UniProt P07359); assay: 125I-von Willebrand Factor binding to ristocetin-stimulated platelets; settings: ristocetin 0.75 mg/ml
T2 construct: endogenous in cells; host or cells: platelets stimulated with ristocetin (0.75 mg/ml)
Method: as §1

[5] = target: T3, GPIIb-GPIIIa complex (Homo sapiens, UniProt P05106+P08514); assay: 125I-trigramin binding to human platelets
T3 construct: endogenous in cells; host or cells: human platelets (resting, ADP-stimulated or chymotrypsin-treated)
Excerpt: There are several similarities between the binding of ^125 I-trigramin and the binding of ^125 I-fibrinogen to human platelets. The binding of both ligands is inhibited by EDTA; by monoclonal antibodies interacting with the GP-IIb-GPIIIa complex (Coller, J. Clin. Invest. 76:101-108 (1985) and Bennett et al., Proc. Natl. Acad. Sci. U.S.A. 80:2417-2421 (1983)); by synthetic peptides representing putative platelet binding sites on the fibrinogen molecule Arg-Gly-Asp-Ser (Gartner et al., J. Biol. Chem. 260:11891-11894 (1985) and Plow et al., Proc. Natl. Acad. Sci. U.S.A. 82:8057-8061 (1985)); and by tyrosyl pentadecapeptide of the C-terminal portion of the gamma chain, […](Kloczewiak et al., Biochemistry 23:1767-1774 (1984). […] These individuals are deficient in the GPIIb-GPIIIa complex.
The binding affinity of trigramin to ADP-stimulated platelets resembles that of monoclonal antibodies.

[6] = Phospholipase A activity of the HPLC-purified material; format: biochemical
Method: A high performance liquid chromatography column (250×4.6 mm) containing a wide-pore C-18 silica matrix (e.g., VYDAC TPRP, The Separations Group, Hesperia, Calif.) is equilibrated at 20° C. in 0.1% trifluoroacetic acid. 150 micrograms of the above-prepared crude material in 200 microliters of 0.15M NaCl is injected into the column at a flow rate of 1.0 ml/min. The column is washed for 3 minutes. Fractions are eluted over 50 minutes with a gradient of 0-55% acetonitrile. […] The homogeneity of the purified material is confirmed by SDS-polyacrylamide gel electrophoresis with a silver stain (1 microgram). Trigramin appears as a single band with apparent molecular weight of about 9 kd on 20% gels.

[7] = target: T4, fibrinogen receptors on platelets associated with the GPIIb-GPIIIa complex (Homo sapiens, UniProt P05106+P08514); assay: 125I-fibrinogen binding to ADP-stimulated human washed platelets; settings: ADP 10 micromolar-stimulated platelets; double-reciprocal plot FIG. 1; read-out: inhibition constant, Ki (competitive inhibition of fibrinogen binding)
T4 construct: Human washed platelet suspension was prepared; endogenous in cells; host or cells: washed human platelets, stimulated with 10 micromolar ADP
Method: (§2) The following experiment illustrates that trigramin can inhibit fibrinogen binding to platelets. Human washed platelet suspension was prepared according to the method of Mustard et al., Brit. J. Haemat. 22:193-204 (1972) and suspended in Tyrode's albumin solution (pH 7.35) containing 3.5 mg/ml bovine serum albumin (Sigma, Fraction V). To 420 microliters of this platelet suspension (about 5×10^8 platelets/ml) was added 10 microliters of ^125 I-fibrinogen. An amount of trigramin was added to the suspension, followed 3 minutes later by 10 microliters ADP (final concentration 10 micromolar). Following addition of ADP, the platelet suspension was gently shaken and incubated for about another 10 minutes. Then, 400 microliters of the platelet suspension were centrifuged through silicone oil at 15,000 g in an Eppendorf centrifuge. The amount of ^125 I-fibrinogen bound to the platelet pellet was measured. Nonspecific binding of fibrinogen was measured in the presence of 6 mM EDTA. The IC50 or 50% inhibition of fibrinogen binding was determined.

[8] = Elimination from the circulation; settings: in vivo
[9] = Solubility in water; format: physicochemical
[10] = Stability to proteolysis; format: in vitro ADME
[11] = test system: melanoma cells that contain GPIIIa and vitronectin receptor; assay: Melanoma cell adhesion to fibronectin-covered substrata and cell spreading; format: cell-based
Excerpt: We have also observed an interaction between trigramin and melanoma cells that contain GPIIIa and vitronectin receptor. […] In the system tested, the biological activity of 0.2 nmoles of trigramin corresponded to 100 nmoles of the peptide glycine-arginine-glycine-aspartic acid-serine ("GRGDS"). This observation is interesting in view of the successful efforts of Humphries et al., Science 233: 467-470 to inhibit metastases of a melanoma cell line in mice by GRGDS.

[12] = test system: exposed fibrinogen receptors on alpha-chymotrypsin-treated platelets; assay: 125I-fibrinogen binding to alpha-chymotrypsin-treated platelets; design: species or system human; settings: data not shown; read-out: IC50 of inhibition of 125I-fibrinogen binding to alpha-chymotrypsin-treated platelets
Method: as §2
(§3) Platelet suspension was prepared as above. Platelets treated with alpha chymotrypsin (Sigma, grade IS) were prepared as described by Kornecki et al., J. Biol. Chem. 258:9349-9356 (1983), except that the incubation time of the platelets with chymotrypsin was reduced from 45 minutes to 20 minutes.

[13] = test system: ADP-stimulated platelets; assay: Fibrinogen-induced aggregation of ADP-stimulated platelets in suspension (turbidimetric); format: cell-based, human; settings: ADP 10 micromolar, fibrinogen 200 micrograms/ml, 37° C.; read-out: IC50 for inhibition of aggregation of ADP-stimulated platelets
Method: as §3
(§4) Various doses of trigramin (0.25-5.0 microgram/ml) were added to 420 microliters of platelet suspension (3×10^8 platelets per ml). One minute later, 10 microliters ADP (10 micromolar) and 10 microliters fibrinogen (200 micrograms) were added to initiate platelet aggregation. The same procedure using fibrinogen alone (without ADP) was carried out to induce aggregation of the chymotrypsin-treated platelets. The extent of platelet aggregation in each system was measured at 37° C. by the turbidimetric method of Born et al., J. Physiol. (Lond.) 168:178-195 (1963).

[14] = test system: chymotrypsin-treated platelets; assay: Fibrinogen-induced aggregation of chymotrypsin-treated platelets (turbidimetric); format: cell-based, human; settings: fibrinogen alone, without ADP, 37° C.; read-out: IC50 for inhibition of chymotrypsin-treated platelets (aggregation)
Method: as §3, §4

Q: Which “time until bleeding ceased after the completion of the infusion” value ([1]; one hamster, positive control, 2 ng/kg/min) does the source give for `CC#CCC(C)[C@H](O)/C=C/[C@@H]1[C@H]2C/C(=C/CCCC(=O)O)C[C@H]2C[C@H]1O` (stereo partly drawn) [Iloplrost, reference compound] here?
A: approximately 9 minutes

Q: For trigramin, which “blocking of von Willebrand Factor binding to thrombin-stimulated human platelets” value [2] is on record?
A: specifically blocks

Q: And the “inhibition of platelet aggregation induced by 9,11-dideoxy-9,11-methanoepoxy-PGF2-alpha” value ([3]; agonist 2.5 micromolar)?
A: inhibited platelet aggregation

Q: And the “inhibition of platelet aggregation induced by thrombin” value ([3]; thrombin 0.5 units/ml)?
A: inhibited platelet aggregation

Q: What about the “blocking of von Willebrand Factor binding to ristocetin-stimulated platelets” value [4] of the same compound?
A: does not block

Q: What about the “binding affinity of 125I-trigramin relative to 125I-fibrinogen, judged on dissociation constants” value ([5]; ADP-stimulated platelets) of the same compound?
A: approximately 15 fold

Q: And the “binding to platelets of patients with Glanzmann's thrombasthenia” value ([5]; platelets deficient in the GPIIb-GPIIIa complex)?
A: Neither trigramin nor fibrinogen was observed to bind sufficiently

Q: And the “number of trigramin binding sites relative to total number of fibrinogen binding sites exposed by ADP” value ([5]; similar on resting, ADP-stimulated and chymotrypsin-treated platelets)?
A: 50%

Q: And the “phospholipase A activity” value [6]?
A: devoid of phospholipase A activity

Q: What about the Ki [7] of the same compound?
A: 20 nM

Q: And the “elimination from the circulation” value [8]?
A: eliminated from the circulation rapidly

Q: What about the solubility in water [9] of the same compound?
A: soluble in water

Q: And the stability to proteolysis [10]?
A: relatively stable to proteolysis

Q: What about the “adhesion of melanoma cells to fibronectin-covered substrata” value [11] of the same compound?
A: blocks the adhesion

Q: And the melanoma cell spreading [11]?
A: inhibits cell spreading

Q: And the “amount giving corresponding biological activity in the melanoma cell system” value ([11]; 0.2 nmoles of trigramin corresponded to 100 nmoles of GRGDS)?
A: 0.2 nmoles

Q: And the “bleeding time after cessation of infusion” value ([1]; hamster, infusion 80 micrograms/kg/min, FIG. 4)?
A: rapid return of bleeding time to normal values

Q: And the “bleeding time of the hamster mesentery during continuous infusion” value ([1]; i.v. infusion, dose-dependent, control bleeding time 3.02 minutes+/-0.43, FIG. 3)?
A: markedly increased

Q: And the IC50 [12]?
A: 11 nM

Q: What about the IC50 [13] of the same compound?
A: 130 nM

Q: What about the IC50 [14] of the same compound?
A: 28 nM
